In US20140349989A1, “COMPOUNDS AND THERAPEUTIC USES THEREOF” (Alzheimer's Institute of America, priority 2011, published 2014):
Like-named read-outs stand apart in the source and are kept apart here.

Assay: Cytotoxicity Assay (HCT116, CellTiter-Glo)
Assay type: cell-based
Details: human
Experimental: HCT116 cells were seeded in 96 well plates (Greiner Bio-One, Monroe, N.C.) and allowed to settle overnight. Test compound dissolved in dimethyl sulfoxide (DMSO) was added and drug incubation proceeded for 72 hours. When applicable, a 1000× solution of nicotinic acid (NA; Sigma-Aldrich, St. Louis, Mo.) dissolved in water was generated, and 1×NA (10 μM final concentration) was added at the same time as the test compound. After 72 hour, 50 μL of CellTiter-Glo Luminescent Cell Viability Assay reagent (Promega Corporation, Madison, Wis.) was added to cells in 200 μL of cellular media. After a proscribed incubation period, luminescence was measured using a TopCount NXT plate reader (PerkinElmer, Waltham, Mass.).

[1] = HCT116 cells, 72 hours drug incubation, CellTiter-Glo luminescence, read-out: HCT116 cell cytotoxicity IC50

| SMILES | IC50 at 72 h [1] | IC50 at 72 h (HCT116 cell cytotoxicity IC50) |
| --- | --- | --- |
| O=C(NCCCn1cc(C(=O)NCCCN2CCCC2)c2ccccc21)NCc1cccnc1 [Compound 59, 1-(3-{[(Pyridin-3-ylmethyl)carbamoyl]amino}propyl)-N-[3-(pyrrolidin-1-yl)propyl]-1H-indole-3-carboxamide] | ≥ 100 nM | – |
| CCOC(=O)c1c(C)n(-c2ccc(NC(=O)NCc3cccnc3)cc2)c2ccccc12 [Compound 79, Ethyl 2-methyl-1-(4-{[(pyridin-3-ylmethyl)carbamoyl]amino}phenyl)-1H-indole-3-carboxylate] | – | ≥ 100 nM |
| O=C(NCc1cncc(F)c1)Nc1ccc(-n2cc(CCN3CCOCC3)c3ccccc32)cc1 [Compound 103, 1-[(5-Fluoro-pyridin-3-yl)methyl]-3-(4-{3-[2-(morpholin-4-yl)ethyl]-1H-indol-1-yl}phenyl)urea] | < 100 nM | – |
| O=C(NCc1cccnc1)Nc1ccc(-n2nc(N3CCN(C4CCCCC4)CC3)c3ccccc32)cc1 [Compound 86, 1-{4-[3-(4-Cyclo-hexylpiperazin-1-yl)-1H-indazol-1-yl]phenyl}-3-(pyridin-3-ylmethyl)urea] | < 100 nM | – |
| O=C(NCCCCCn1cc(C(=O)N2CCN(C3CCCCC3)CC2)c2ccccc21)NCc1cncs1 [Compound 124, 1-(5-{3-[(4-Cyclohexyl-piperazin-1-yl)carbonyl]-1H-indol-1-yl}pentyl)-3-(1,3-thiazol-5-ylmethyl) urea] | < 100 nM | – |
| O=C(NCc1cccnc1)Nc1ccc(-n2cc(-c3nccn3CCN3CCCCC3)c3ccccc32)cc1 [Compound 52, 1-[4-(3-{1-[2-(Piperidin-1-yl)ethyl]-1H-imidazol-2-yl}-1H-indol-1-yl)phenyl]-3-(pyridin-3-ylmethyl)urea] | < 100 nM | – |
| Cc1c(C(=O)N2CCN(C3CCC(F)(F)CC3)CC2)c2ccccc2n1-c1ccc(NC(=O)NCc2cccnc2)cc1 [Compound 93, 1-[4-(3-{[4-(4,4-Difluoro-cyclohexyl)pipe-razin-1-yl]carbonyl}-2-methyl-1H-indol-1-yl)phenyl]-3-(pyridin-3-ylmethyl)urea] | < 100 nM | – |
| CN1CCN(C(=O)Cc2cn(-c3ccc(NC(=O)NCc4cccnc4)cc3)c3ccccc23)CC1 [Compound 101, 1-(4-{3-[2-(4-Methylpiperazin-1-yl)-2-oxoethyl]-1H-indol-1-yl}phenyl)-3-(pyridin-3-ylmethyl)urea] | < 100 nM | – |
| O=C(/C=C/c1ccc(-n2nc(C(=O)N3CCC(N4CCOCC4)C3)c3ccccc32)cc1)NCc1cccnc1 (stereo not drawn) [Compound 170, (2E)-3-[4-(3-{[3-(Morpholin-4-yl)pyrrolidin-1-yl]carbonyl}-1H-indazol-1-yl)phenyl]-N-(pyridin-3-ylmethyl)prop-2-enamide] | < 100 nM | – |
| Cc1c(Cc2ccc(F)cc2)c(C(=O)N2CCC(N3CCCCC3)CC2)nn1-c1ccc(NC(=O)NCc2cccnc2)cc1 [Compound 81, 1-{4-[3-(1,4′-Bipiperidin-1′-ylcarbonyl)-4-(4-fluorobenzyl)-5-methyl-1H-pyrazol-1-yl]phenyl}-3-(pyridin-3-ylmethyl)urea] | – | ≥ 100 nM |
| COc1cccc(-c2cn(-c3ccc(NC(=O)NCc4cccnc4)cc3)nc2C(=O)N2CCC(N3CCCCC3)CC2)c1 [Compound 85, 1-{4-[3-(1,4′-Bipiperidin-1′-ylcarbonyl)-4-(3-methoxyphenyl)-1H-pyrazol-1-yl]phenyl}-3-(pyridin-3-ylmethyl)urea] | < 100 nM | – |
| CCN(CC)CCc1cn(-c2ccc(/C=C/C(=O)NCc3cccnc3)cc2)c2ccccc12 [Compound 162, (2E)-3-(4-{3-[2-(Diethylamio)ethyl]-1H-indol-1-yl}phenyl)-N-(pyridin-3-ylmethyl)prop-2-enamide] | < 100 nM | – |
| CCOC(=O)c1cn(CCCCNC(=O)NCc2cccnc2)c2ccccc12 [Compound 45, Ethyl 1-(4-{[(pyridin-3-ylmethyl)carbamoyl]amino}butyl)-1H-indole-3-carboxylate] | < 100 nM | – |
| CC(C)(CCCCNC(=O)NCc1cccnc1)n1cc(C(=O)N2CCN(C3CCCCC3)CC2)c2ccccc21 [Compound 67, 1-(5-{3-[(4-Cyclohexyl-piperazin-1-yl)carbonyl]-1H-indol-1-yl}-5-methylhexyl)-3-(pyridin-3-ylmethyl)urea] | < 100 nM | – |
| O=C(NCc1cccnc1)Nc1ccc(-n2cc(-c3nccn3CCCN3CCCC3)c3ccccc32)cc1 [Compound 120, 1-(Pyridin-3-ylmethyl)-3-[4-(3-{1-[3-(pyrrolidin-1-yl)propyl]-1H-imidazol-2-yl}-1H-indol-1-yl)phenyl] urea] | – | ≥ 100 nM |
| O=C(NCc1cccnc1)Nc1ccc(-n2nc(N3CCN(C4COC4)CC3)c3ccccc32)cc1 [Compound 114, 1-(4-{3-[4-(Oxetan-3-yl)piperazin-1-yl]-1H-indazol-1-yl}phenyl)-3-(pyridin-3-ylmethyl)urea] | < 100 nM | – |
| O=C(NCc1cccnc1)Nc1ccc(-c2nn(C3CNC3)c3ccccc23)cc1 [Compound 91, 1-{4-[1-(Azetidin-3-yl)-1H-indazol-3-yl]phenyl}-3-(pyridin-3-ylmethyl) urea] | < 100 nM | – |

| SMILES | IC50 at 72 h [1] | IC50 at 72 h (HCT116 cell cytotoxicity IC50) |
| --- | --- | --- |
| Cc1c(C(=O)N2CCC(n3ccnc3)CC2)c2ccccc2n1-c1ccc(NC(=O)NCc2cccnc2)cc1 [Compound 48, 1-[4-(3-{[4-(1H-Imidazol-1-yl)piperidin-1-yl]carbonyl}-2-methyl-1H-indol-1-yl)phenyl]-3-(pyridin-3-ylmethyl)urea] | – | ≥ 100 nM |
| O=C(NCc1cccnc1)Nc1ccc(N2CC3(CCN(C4CCOCC4)CC3)c3ccccc32)nc1 [Compound 130] | – | < 100 nM |
| O=C(NCc1cccnc1)Nc1ccc(-c2cn(S(=O)(=O)c3cccnc3)c3ccccc23)cc1 [Compound 43, 1-(Pyridin-3-ylmethyl)-3-{4-[1-(pyridin-3-ylsulfonyl)-1H-indol-3-yl]phenyl} urea] | – | < 100 nM |
| O=C(NCc1cccnc1)Nc1ccc(-c2nn(CCN3CCCCC3)c3ccccc23)cc1 [Compound 75, 1-[4-[1-[2-(1-piperidyl)ethyl]indazol-3-yl]phenyl]-3-(3-pyridylmethyl)urea] | < 100 nM | – |
| O=C(NCc1cccnc1)Nc1ccc(-n2nc(C(=O)N3CCC(N4CCCC4)CC3)cc2C2CC2)cc1 [Compound 74, 1-[4-(5-Cyclopropyl-3-{[4-(pyrrolidin-1-yl)piperidin-1-yl]carbonyl}-1H-pyrazol-1-yl)phenyl]-3-(pyridin-3-ylmethyl)urea] | – | ≥ 100 nM |
| O=C(NCc1cccnc1)Nc1ccc(-n2cc(CCN3CCC(F)(F)C3)c3ccccc32)cc1 [Compound 69, 1-(4-{3-[2-(3,3-Difluoropyrrolidin-1-yl)ethyl]-1H-indol-1-yl}phenyl)-3-(pyridin-3-ylmethyl) urea] | < 100 nM | – |
| CC(C)(C)OC(=O)N1CCC(n2cc(CCCCCCNC(=O)NCc3cccnc3)c3ccccc32)CC1 [Compound 123, tert-Butyl 4-[3-(6-{[(pyridin-3-ylmethyl)carbamoyl]amino}hexyl)-1H-indol-1-yl]piperidine-1-carboxylate] | – | ≥ 100 nM |
| CN1CCN(C2CCN(C(=O)c3cn(CCCCNC(=O)NCc4cccnc4)c4ccccc34)CC2)CC1 [Compound 115, 1-[4-(3-{[4-(4-Methylpiperazin-1-yl)piperidin-1-yl]carbonyl}-1H-indol-1-yl)butyl]-3-(pyridin-3-ylmethyl)urea] | < 100 nM | – |
| O=C(NCc1cccnc1)Nc1ccc(-n2c(Cl)c(C(=O)N3CCC(n4ccnc4)CC3)c3ccccc32)cc1 [Compound 127, 1-[4-(2-Chloro-3-{[4-(1H-imidazol-1-yl)piperidin-1-yl]carbonyl}-1H-indol-1-yl)phenyl]-3-(pyridin-3-ylmethyl)urea] | – | < 100 nM |
| COC(=O)c1cn(Cc2ccccc2)c2cc(NC(=O)NCc3cccnc3)ccc12 [Compound 83, Methyl 1-benzyl-6-{[(pyridin-3-ylmethyl)carbamoyl]ami-no}-1H-indole-3-carboxylate] | ≥ 100 nM | – |
| O=C(NCc1cccnc1)Nc1ccc(-n2cc(C(=O)N3CCC(O)CC3)c3ccccc32)c(Cl)c1 [Compound 88, 1-(3-Chloro-4-{3-[(4-hydroxy-piperidin-1-yl)carbonyl]-1H-indol-1-yl}phenyl)-3-(pyridin-3-ylmethyl)urea] | – | ≥ 100 nM |
| C[C@H](O)C(=O)N1CCC2(CC1)CN(c1ccc(NC(=O)NCc3cccnc3)cc1)c1ccccc12 [Compound 71, 1-(4-{1′-[(2S)-2-Hydroxypropanoyl]spiro[indole-3,4′-piperidin]-1(2H)-yl}phenyl)-3-(pyridin-3-ylmethyl) urea] | < 100 nM | – |
| O=C(NCc1cccnc1)Nc1ccc(-n2cc(-c3nccn3CCN3CCCC3)c3ccccc32)cc1 [Compound 72, 1-(Pyridin-3-ylmethyl)-3-[4-(3-{1-[2-(pyrrolidin-1-yl)ethyl]-1H-imidazol-2-yl}-1H-indol-1-yl)phenyl] urea] | < 100 nM | – |
| O=C(NCCCCCn1cc(C(=O)N2CCC(N3CCCCC3)CC2)c2ccccc21)NCc1cccnc1 [Compound 31, 1-{5-[3-(1,4′-Bipiperidin-1′-yl-carbonyl)-1H-indol-1-yl]pentyl}-3-(pyridin-3-ylmethyl)urea] | < 100 nM | – |
| O=C(NCc1cccnc1)Nc1ccc(-n2cc(C(=O)N3CCC(N4CCC(F)(F)CC4)CC3)c3ccccc32)c(Cl)c1 [Compound 107, 1-(3-Chloro-4-{3-[(4,4-difluoro-1,4′-bipiperidin-1′-yl)carbonyl]-1H-indol-1-yl}phenyl)-3-(pyridin-3-ylmethyl)urea] | < 100 nM | – |
| O=C(NCc1cccnc1)Nc1ccc(-n2nc(N3CCNCC3)c3ccccc32)cc1 [Compound 98, 1-{4-[3-(Piperazin-1-yl)-1H-indazol-1-yl]phenyl}-3-(pyridin-3-ylmethyl)urea] | < 100 nM | – |
